According to PubChem BioAssay AID2060615 (Molecular Pharmacology Branch, DTP, NCI, 2025):

System: 496974-208-R-J2-PDC complex spheroids, growth % test/control
Assay: Anticancer human tumor 496974-208-R-J2-PDC patient-derived pancreatic carcinoma cell line growth inhibition [CLK]
Conditions: for IC50: curve of first compound; for viability, T/C: stronger effect = lower value; active means viability on the fitted dose curve at most 10% of control; inactive means the rest
Method in brief: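 Patient-derived tumor cells grown as complex spheroids with HUVEC endothelial cells and mesenchymal stem cells, treated with drug combinations. Concentrations descend in half-log steps from near clinical Cmax, or from 10 microM if Cmax unknown.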

[1] = second compound 0.0316 µM, first compound 0.0316 µM
[2] = second compound 0.0316 µM, first compound 0.1 µM
[3] = second compound 0.0316 µM, first compound 0.316 µM
[4] = second compound 0.0316 µM, first compound 1 µM
[5] = second compound 0.1 µM, first compound 0.0316 µM
[6] = second compound 0.1 µM, first compound 0.1 µM
[7] = second compound 0.1 µM, first compound 0.316 µM
[8] = second compound 0.1 µM, first compound 1 µM
[9] = second compound 0.316 µM, first compound 0.0316 µM
[10] = second compound 0.316 µM, first compound 0.1 µM
[11] = second compound 0.316 µM, first compound 0.316 µM
[12] = second compound 0.316 µM, first compound 1 µM
[13] = second compound 1 µM, first compound 0.0316 µM
[14] = second compound 1 µM, first compound 0.1 µM
[15] = second compound 1 µM, first compound 0.316 µM
[16] = second compound 1 µM, first compound 1 µM
[17] = second compound 3.16 µM, first compound 0.0316 µM
[18] = second compound 3.16 µM, first compound 0.1 µM
[19] = second compound 3.16 µM, first compound 0.316 µM
[20] = second compound 3.16 µM, first compound 1 µM
[21] = second compound 10 µM, first compound 0.0316 µM
[22] = second compound 10 µM, first compound 0.1 µM
[23] = second compound 10 µM, first compound 0.316 µM
[24] = second compound 10 µM, first compound 1 µM
[25] = second compound 0.0316 µM, first compound 0.00316 µM
[26] = second compound 0.0316 µM, first compound 0.01 µM
[27] = second compound 0.1 µM, first compound 0.00316 µM
[28] = second compound 0.1 µM, first compound 0.01 µM
[29] = second compound 0.316 µM, first compound 0.00316 µM
[30] = second compound 0.316 µM, first compound 0.01 µM
[31] = second compound 1 µM, first compound 0.00316 µM
[32] = second compound 1 µM, first compound 0.01 µM
[33] = second compound 3.16 µM, first compound 0.00316 µM
[34] = second compound 3.16 µM, first compound 0.01 µM
[35] = second compound 10 µM, first compound 0.00316 µM
[36] = second compound 10 µM, first compound 0.01 µM
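Further: spheroids exposed to the drugs for 7 days before readout.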
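Wherever viability, T/C is given: 100% = DMSO vehicle control wells.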

CC(Nc1ccc2c(c1)OCCn1cc(N3C(=O)OCC3C(F)F)nc1-2)C(N)=O (stereo unspecified) + CNC(=O)c1ccc(Nc2nc(OC3CCCC3)c3c(-c4ccc5nc(C)oc5c4)c[nH]c3n2)c(OC)c1
184 nM: IC50 (second compound 0.1 µM)
< 31.6 nM: IC50 (second compound 10 µM)
68.7 nM: IC50 (second compound 1 µM)
inactive: viability, T/C [1] 87.2% | viability, T/C [2] 55.2% | viability, T/C [3] 38.5% | viability, T/C [4] 23.6% | viability, T/C (second compound 0.0316 µM, first compound 3.16 µM) 16.9% | viability, T/C (second compound 0.0316 µM, first compound 10 µM) 9.1% | viability, T/C [5] 70.5% | viability, T/C [6] 63.7% | viability, T/C [7] 37.5% | viability, T/C [8] 23.7% | viability, T/C (second compound 0.1 µM, first compound 3.16 µM) 15.5% | viability, T/C (second compound 0.1 µM, first compound 10 µM) 10.6% | viability, T/C [9] 76.6% | viability, T/C [10] 48.4% | viability, T/C [11] 30.1% | viability, T/C [12] 23.4% | viability, T/C (second compound 0.316 µM, first compound 3.16 µM) 15.5% | viability, T/C (second compound 0.316 µM, first compound 10 µM) 9.62% | viability, T/C [13] 58.8% | viability, T/C [14] 46.8% | viability, T/C [15] 32.3% | viability, T/C [16] 20.1% | viability, T/C (second compound 1 µM, first compound 3.16 µM) 18.4% | viability, T/C (second compound 1 µM, first compound 10 µM) 9.57% | viability, T/C [17] 56.9% | viability, T/C [18] 38.6% | viability, T/C [19] 28.3% | viability, T/C [20] 20% | viability, T/C (second compound 3.16 µM, first compound 3.16 µM) 17.6% | viability, T/C (second compound 3.16 µM, first compound 10 µM) 12.8% | viability, T/C [21] 47.2% | viability, T/C [22] 38.8% | viability, T/C [23] 24.6% | viability, T/C [24] 19% | viability, T/C (second compound 10 µM, first compound 3.16 µM) 15.6% | viability, T/C (second compound 10 µM, first compound 10 µM) 13.7%
95.5 nM: IC50 (second compound 0.316 µM)
150 nM: IC50 (second compound 0.0316 µM)
49.2 nM: IC50 (second compound 3.16 µM)

CCN1CCN(Cc2ccc(Nc3ncc(F)c(-c4cc(F)c5nc(C)n(C(C)C)c5c4)n3)nc2)CC1 + CNC(=O)c1ccc(Nc2nc(OC3CCCC3)c3c(-c4ccc5nc(C)oc5c4)c[nH]c3n2)c(OC)c1
> 1000 nM: IC50 (second compound 0.0316 µM) | IC50 (second compound 0.1 µM) | IC50 (second compound 0.316 µM) | IC50 (second compound 1 µM) | IC50 (second compound 3.16 µM) | IC50 (second compound 10 µM)
inactive: viability, T/C [25] 91.7% | viability, T/C [26] 90.2% | viability, T/C [1] 90.1% | viability, T/C [2] 94.2% | viability, T/C [3] 98% | viability, T/C [4] 98.4% | viability, T/C [27] 89.5% | viability, T/C [28] 88.9% | viability, T/C [5] 87.9% | viability, T/C [6] 84.2% | viability, T/C [7] 86.8% | viability, T/C [8] 97.5% | viability, T/C [29] 81.3% | viability, T/C [30] 81.9% | viability, T/C [9] 87.8% | viability, T/C [10] 81.4% | viability, T/C [11] 85.4% | viability, T/C [12] 94.8% | viability, T/C [31] 78.7% | viability, T/C [32] 81.2% | viability, T/C [13] 77.7% | viability, T/C [14] 76.3% | viability, T/C [15] 92.6% | viability, T/C [16] 81.8% | viability, T/C [33] 72.5% | viability, T/C [34] 71.9% | viability, T/C [17] 66.7% | viability, T/C [18] 77.6% | viability, T/C [19] 69.3% | viability, T/C [20] 73.7% | viability, T/C [35] 63% | viability, T/C [36] 61.7% | viability, T/C [21] 67.7% | viability, T/C [22] 69.3% | viability, T/C [23] 74.7% | viability, T/C [24] 75%

COc1c(OCCCN2CCOCC2)ccc2c3n(c(=NC(=O)c4cnc(N)nc4)nc12)CCN3 + CNC(=O)c1ccc(Nc2nc(OC3CCCC3)c3c(-c4ccc5nc(C)oc5c4)c[nH]c3n2)c(OC)c1
17.4 nM: IC50 (second compound 0.0316 µM)
active: viability, T/C [3] 9.14% | viability, T/C [4] 4.1% | viability, T/C [11] 11.2% | viability, T/C [12] 5.48% | viability, T/C [15] 12.3% | viability, T/C [16] 5.46% | viability, T/C [19] 8.87% | viability, T/C [20] 6.58% | viability, T/C [23] 9.58% | viability, T/C [24] 3.59%
7.96 nM: IC50 (second compound 1 µM)
inactive: viability, T/C [25] 88.2% | viability, T/C [26] 68.6% | viability, T/C [1] 29.4% | viability, T/C [2] 14.5% | viability, T/C [27] 76.9% | viability, T/C [28] 64.2% | viability, T/C [5] 30.2% | viability, T/C [6] 16.1% | viability, T/C [7] 12.5% | viability, T/C [8] 7.78% | viability, T/C [29] 70.3% | viability, T/C [30] 53.4% | viability, T/C [9] 24.8% | viability, T/C [10] 15.1% | viability, T/C [31] 61.2% | viability, T/C [32] 47.7% | viability, T/C [13] 27.5% | viability, T/C [14] 14% | viability, T/C [33] 54.4% | viability, T/C [34] 42% | viability, T/C [17] 26.1% | viability, T/C [18] 16.1% | viability, T/C [35] 50% | viability, T/C [36] 37.7% | viability, T/C [21] 21.9% | viability, T/C [22] 12.4%
16.2 nM: IC50 (second compound 0.1 µM)
4.74 nM: IC50 (second compound 3.16 µM)
11.1 nM: IC50 (second compound 0.316 µM)
3.25 nM: IC50 (second compound 10 µM)
